# Calls of active or inactive are those of the source. The calls are words filed in the database; no cut-off is given here.
# Experiments:
# Mus musculus [1] = experiment: Antinociceptive activity in sc dosed mouse assessed as inhibition of morphin response by tail flick assay; format: functional
# [2] = Displacement of [3H]etorphine from opioid receptor in rat cerebrum
# Mus musculus [3] = experiment: Antinociceptive activity in sc dosed mouse by hot plate method; format: functional
# Mus musculus [4] = experiment: Antinociceptive activity in sc dosed mouse by tail flick method; format: functional
# Mu-type opioid receptor = Mu-type opioid receptor (Mus musculus, UniProt P42866); experiment: Agonist activity at mu opioid receptor in Swiss mouse vas deferens assessed as inhibition of electrically-stimulated twitch; format: functional, tissue-based
# Mu-type opioid receptor, sequence (P42866 whole entry): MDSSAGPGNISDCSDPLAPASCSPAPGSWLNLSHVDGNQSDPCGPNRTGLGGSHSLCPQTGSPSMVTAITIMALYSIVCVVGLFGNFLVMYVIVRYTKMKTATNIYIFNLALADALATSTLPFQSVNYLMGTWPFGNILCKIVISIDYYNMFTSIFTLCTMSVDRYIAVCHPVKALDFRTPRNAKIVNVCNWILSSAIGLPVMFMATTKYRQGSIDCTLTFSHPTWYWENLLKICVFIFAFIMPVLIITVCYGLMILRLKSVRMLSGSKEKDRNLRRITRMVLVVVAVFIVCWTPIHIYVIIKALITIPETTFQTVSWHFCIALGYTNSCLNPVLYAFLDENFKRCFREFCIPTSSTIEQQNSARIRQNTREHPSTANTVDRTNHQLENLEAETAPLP
# Mus musculus [5] = experiment: Antinociceptive activity in sc dosed mouse by phenylquinone antiwrithing assay; format: functional
# [6] = Displacement of 3.0 nM [3H]etorphine from opioid receptor in rat cerebrum
Compound,Activity (Mus musculus [1]),EC50 [2] [µM],Activity (Mus musculus [3]),Activity (Mus musculus [4]),EC50 (Mu-type opioid receptor) [µM],ED50 (Mus musculus [5]) [mg/kg],ED50 (Mus musculus [1]) [mg/kg],Activity (Mus musculus [5]),EC50 [6] [µM],ED50 (Mus musculus [3]) [mg/kg],ED50 (Mus musculus [4]) [mg/kg]
CCOC(=O)CCCN1CC[C@]2(C)c3cc(O)ccc3CC1[C@@H]2C,inactive,1.02,inactive,inactive,17.9,7.1,,,,,
O=C1CC[C@@]2(O)[C@H]3Cc4ccc(O)c5c4[C@@]2(CCN3CC2CC2)[C@H]1O5 [NALTREXONE],,0.00063,inactive,inactive,,,0.007,inactive,0.002,,
C[C@H]1C2Cc3ccc(O)cc3[C@@]1(C)CCN2CCC(=O)O,inactive,> 6,inactive,inactive,,11.4,,,,,
CCOC(=O)CCN1CC[C@]2(C)c3cc(O)ccc3CC1[C@@H]2C,inactive,,inactive,inactive,,,,inactive,,,
C=CCN1CC[C@]23c4c5ccc(O)c4O[C@H]2[C@@H](O)C=C[C@H]3[C@H]1C5 [NALORPHINE],,0.02,,inactive,,0.6,2.6,,,,
C[C@H]1C2Cc3ccc(O)cc3[C@@]1(C)CCN2CCCC(=O)O,inactive,> 6,inactive,inactive,,1.4,,,,,
C[C@H]1C2Cc3ccc(O)cc3[C@@]1(C)CCN2CC(=O)O,inactive,> 6,inactive,inactive,9.79,,,inactive,,,
CN1CC[C@]23c4c5ccc(O)c4O[C@H]2[C@@H](O)C=C[C@H]3[C@H]1C5 [MORPHINE],,,,,,,2.6,,,,
C[C@H]1[C@@H]2Cc3ccc(O)cc3[C@]1(C)CCN2C [METAZOCINE],inactive,,,,,0.3,,,,0.62,0.81
CCOC(=O)CN1CC[C@]2(C)c3cc(O)ccc3CC1[C@@H]2C,inactive,2.08,inactive,inactive,,,,inactive,,,
C=CCN1CC[C@]23c4c5ccc(O)c4O[C@H]2C(=O)CC[C@@]3(O)[C@H]1C5 [NALOXONE],,0.00626,inactive,inactive,,,0.03,inactive,0.0091,,
COc1ccc2c3c1O[C@H]1[C@@H](O)C=C[C@H]4[C@@H](C2)N(C)CC[C@@]341 [CODEINE],,,,,,,,,34.7,,

# Reference: ChEMBL document CHEMBL1143143, “The influence of esters and carboxylic acids as the N-substituent of opioids. Part 1: Benzomorphans” (Bioorg Med Chem, 2008)
